According to patent publication US10875860B2, “Azaindenoisoquinoline compounds and uses thereof” (Purdue Research Foundation, priority 2016, dated 2020):
Read-outs that look alike come from different tables or passages of the source.

Assays:
Top1 = target: T1, Top1 (Homo sapiens, UniProt P11387); assay: Top1-mediated DNA cleavage assay; assay type: biochemical; set-up: Top1 inhibitory activity level / Top1 inhibitory activity score: key to the marks not given beside the values; settings: for Enzyme Inhibitory Activity Top1: DNA cleavage relative to 1 μM MJ-III-65 (19) and 1 μM camptothecin (18); for Top1 inhibitory activity level: series 1
T1 sequence (P11387 1-765): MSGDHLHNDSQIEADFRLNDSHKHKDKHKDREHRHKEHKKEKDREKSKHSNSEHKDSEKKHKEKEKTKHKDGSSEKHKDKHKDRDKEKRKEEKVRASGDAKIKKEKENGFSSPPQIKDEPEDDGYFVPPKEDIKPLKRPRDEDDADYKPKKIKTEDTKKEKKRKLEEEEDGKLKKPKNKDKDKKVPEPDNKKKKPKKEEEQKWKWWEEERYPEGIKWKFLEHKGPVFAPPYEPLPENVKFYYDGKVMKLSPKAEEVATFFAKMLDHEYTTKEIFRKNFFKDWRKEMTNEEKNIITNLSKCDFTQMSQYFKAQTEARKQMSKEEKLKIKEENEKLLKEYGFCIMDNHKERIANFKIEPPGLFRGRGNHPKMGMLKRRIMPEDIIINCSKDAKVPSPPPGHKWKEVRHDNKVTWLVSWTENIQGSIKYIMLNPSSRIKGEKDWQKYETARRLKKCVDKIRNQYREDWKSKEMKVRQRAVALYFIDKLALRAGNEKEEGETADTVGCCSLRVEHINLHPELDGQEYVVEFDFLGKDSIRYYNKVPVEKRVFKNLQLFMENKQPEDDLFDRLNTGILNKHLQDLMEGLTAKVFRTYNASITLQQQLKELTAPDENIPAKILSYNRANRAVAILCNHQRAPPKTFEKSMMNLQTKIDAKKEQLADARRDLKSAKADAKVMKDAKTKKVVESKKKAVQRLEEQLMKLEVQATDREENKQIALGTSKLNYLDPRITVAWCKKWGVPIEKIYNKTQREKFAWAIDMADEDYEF

Tdp1 = Tdp1 (Homo sapiens, UniProt Q9NUW8); assay: Recombinant Tdp1 assay; assay type: biochemical
Chain of Tdp1 (Q9NUW8 whole entry): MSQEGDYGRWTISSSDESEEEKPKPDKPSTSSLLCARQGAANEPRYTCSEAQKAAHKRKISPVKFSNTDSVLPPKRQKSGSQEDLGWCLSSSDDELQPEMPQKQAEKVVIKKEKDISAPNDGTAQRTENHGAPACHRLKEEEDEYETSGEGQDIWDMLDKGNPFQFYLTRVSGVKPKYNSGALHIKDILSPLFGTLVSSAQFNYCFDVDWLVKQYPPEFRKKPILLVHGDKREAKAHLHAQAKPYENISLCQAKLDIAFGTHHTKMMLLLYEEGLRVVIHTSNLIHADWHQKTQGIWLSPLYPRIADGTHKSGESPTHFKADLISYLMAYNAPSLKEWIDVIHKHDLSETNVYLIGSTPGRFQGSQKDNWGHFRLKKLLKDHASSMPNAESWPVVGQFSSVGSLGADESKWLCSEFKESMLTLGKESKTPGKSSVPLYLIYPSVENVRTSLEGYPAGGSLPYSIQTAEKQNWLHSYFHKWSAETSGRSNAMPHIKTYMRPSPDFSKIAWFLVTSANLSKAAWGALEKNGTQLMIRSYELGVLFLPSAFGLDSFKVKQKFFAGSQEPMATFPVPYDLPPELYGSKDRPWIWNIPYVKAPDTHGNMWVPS

recombinant human TDP2 = target: T2, recombinant human TDP2 (Homo sapiens, UniProt O95551); assay: Recombinant Tdp2 assay; assay type: biochemical
T2 sequence (O95551 1-362): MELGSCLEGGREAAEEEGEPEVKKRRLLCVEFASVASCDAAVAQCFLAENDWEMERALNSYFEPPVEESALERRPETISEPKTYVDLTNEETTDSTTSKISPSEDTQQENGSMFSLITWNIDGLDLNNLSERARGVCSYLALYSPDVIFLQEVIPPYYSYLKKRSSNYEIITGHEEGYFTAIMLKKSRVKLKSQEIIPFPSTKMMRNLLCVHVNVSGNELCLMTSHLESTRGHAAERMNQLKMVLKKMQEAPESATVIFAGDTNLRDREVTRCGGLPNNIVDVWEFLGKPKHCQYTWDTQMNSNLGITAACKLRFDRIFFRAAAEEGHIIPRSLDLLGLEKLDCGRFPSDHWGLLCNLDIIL

SN12C = assay: NCI-60 cytotoxicity, SN12C; settings: Homo sapiens, read-out: Cytotoxicity (GI50) Renal SN12C
MCF-7 = assay: NCI-60 cytotoxicity, MCF-7; settings: Homo sapiens, MCF7, read-out: Cytotoxicity (GI50) Breast MCF-7
HOP-62 = assay: NCI-60 cytotoxicity, HOP-62; settings: Homo sapiens, HOP-62, read-out: Cytotoxicity (GI50) Lung HOP-62
SF-539 = assay: NCI-60 cytotoxicity, SF-539; settings: Homo sapiens, SF-539, read-out: Cytotoxicity (GI50) CNS SF-539
UACC-62 = assay: NCI-60 cytotoxicity, UACC-62; settings: Homo sapiens, UACC-62, read-out: Cytotoxicity (GI50) Melanoma UACC-62
OVCAR-3 = assay: NCI-60 cytotoxicity, OVCAR-3; settings: Homo sapiens, OVCAR-3, read-out: Cytotoxicity (GI50) Ovarian Ovcar-3
[1] = tested on: NCI-60 panel of human cancer cell lines; assay: NCI-60 screen, mean graph midpoint over all cell lines; settings: Homo sapiens, read-out: Cytotoxicity (GI50) MGM
HCT-116 = assay: NCI-60 cytotoxicity, HCT-116; assay type: cell-based; settings: Homo sapiens, single determinations, Table 2, read-out: Cytotoxicity (GI50) Colon HCT-116
DU-145 = assay: NCI-60 cytotoxicity, DU-145; assay type: cell-based; settings: Homo sapiens, single determinations, Table 2, read-out: Cytotoxicity (GI50) Prostate DU-145
[2] = semiquantitative scale, in duplicate, Table 1, read-out: Enzyme Inhibitory Activity Tdp1
[3] = semiquantitative scale, in duplicate, Table 1, read-out: Enzyme Inhibitory Activity Tdp2
[4] = determined in duplicate, Table 2, read-out: Enzyme Inhibitory Activity Tdp1 (IC50)
[5] = read-out: Enzyme Inhibitory Activity Tdp2 (IC50)
[6] = determined in duplicate, Table 2, read-out: Enzyme Inhibitory Activity Tdp2 (IC50)

Compound | Enzyme Inhibitory Activity Top1 (Top1; Table 1) | Top1 inhibitory activity level (Top1) | IC50 (Tdp1; [2]) | IC50 (recombinant human TDP2; [3]) | melting point | Enzyme Inhibitory Activity Top1 (Top1; Table 2) | IC50 (Tdp1; [4]) | IC50 (recombinant human TDP2; [6]) | GI50 (SN12C) | GI50 (MCF-7) | GI50 (HOP-62) | GI50 (SF-539) | GI50 (UACC-62) | GI50 (OVCAR-3) | GI50 [1] | IC50 (recombinant human TDP2; [5]) | GI50 (HCT-116) | GI50 (DU-145)
COc1cnc2c(c1)C(=O)c1c-2n(CCCNCCN2CCOCC2)c(=O)c2cc([N+](=O)[O-])ccc12 [Compound 13, 7-Aza-5,6-dihydro-9-methoxy-6-[3-((2-morpholinoethyl)amino)propyl]-3-nitro-5,11-dioxo-11H-indeno[1,2-c]isoquinoline] | +++ | +++ | 12000 to 37000 nM | 37000 to 111000 nM | 214 to 216 °C | – | – | – | 80 nM | 32 nM | 150 nM | 311 nM | 44 nM | 315 nM | 177 nM | – | – | –
COc1cnc2c(c1)C(=O)c1c-2n(CCCNC(C)C)c(=O)c2cc([N+](=O)[O-])ccc12 [Compound 14, 7-Aza-5,6-dihydro-6-[3-(isopropylamino)propyl]-9-methoxy-3-nitro-5,11-dioxo-11H-indeno[1,2-c]isoquinoline] | ++++ | ++++ | 12000 to 37000 nM | 37000 to 111000 nM | 278 to 280 °C | – | – | – | 39 nM | 12 nM | 85 nM | 51 nM | 19 nM | 82 nM | 58 nM | – | – | –
CCNCCCn1c2c(c3ccc([N+](=O)[O-])cc3c1=O)C(=O)c1cc(OC)cnc1-2 [Compound 15, 7-Aza-6-[3-(ethylamino)propyl]-5,6-dihydro-9-methoxy-3-nitro-5,11-dioxo-11H-indeno[1,2-c]isoquinoline] | ++++ | ++++ | 1000 to 12000 nM | 37000 to 111000 nM | 266 to 268 °C | – | – | – | 53 nM | 19 nM | 107 nM | 70 nM | 27 nM | 62 nM | 79 nM | – | – | –
COc1cnc2c(c1)C(=O)c1c-2n(CCCNC2=NCCS2)c(=O)c2cc(Cl)ccc12 [Compound 16c, 3-Chloro-6-(3-((4,5-dihydrothiazol-2-yl)amino)propyl)-9-methoxy-5H-pyrido[3′,2′:4,5]cyclopenta[1,2-c]isoquinoline-5,11(6H)-dione] | – | – | – | – | 295 to 298 °C | ++ | 11900 ± 3900 nM | – | – | 36 nM | 42 nM | 470 nM | 95 nM | 1300 nM | 390 nM | 32900 ± 5700 nM | 350 nM | 92 nM
CNCCCn1c2c(c3ccc(Cl)cc3c1=O)C(=O)c1cc(OC)cnc1-2 [Compound 16g, 3-Chloro-9-methoxy-6-(3-(methylamino)propyl)-5H-pyrido[3′,2′:4,5]cyclopenta[1,2-c]isoquinoline-5,11(6H)-dione] | – | – | – | – | 274 to 275 °C | – | 16000 ± 3200 nM | > 111000 nM | 1180 nM | 46 nM | 220 nM | 730 nM | 574 nM | 1410 nM | 600 nM | – | 550 nM | 331 nM
COc1cnc2c(c1)C(=O)c1c-2n(CCCNC2=NCCS2)c(=O)c2cc(F)ccc12 [Compound 17c, 6-(3-((4,5-Dihydrothiazol-2-yl)amino)propyl)-3-fluoro-9-methoxy-5H-pyrido[3′,2′:4,5]-cyclopenta-[1,2-c]isoquinoline-5,11(6H)-dione] | – | – | – | – | 226 to 250 °C | ++ | > 111000 nM | – | 238 nM | 33 nM | 59 nM | 305 nM | 344 nM | 567 nM | 269 nM | 61600 ± 14000 nM | 82 nM | 144 nM

Second part, led by results:

Enzyme Inhibitory Activity Top1 (Top1; Table 1) | Top1 inhibitory activity level (Top1) | IC50 (Tdp1; [2]) | IC50 (recombinant human TDP2; [3]) | melting point | Enzyme Inhibitory Activity Top1 (Top1; Table 2) | IC50 (Tdp1; [4]) | IC50 (recombinant human TDP2; [6]) | Compound | GI50 (SN12C) | GI50 (MCF-7) | GI50 (HOP-62) | GI50 (SF-539) | GI50 (UACC-62) | GI50 (OVCAR-3) | GI50 [1] | IC50 (recombinant human TDP2; [5]) | GI50 (HCT-116) | GI50 (DU-145)
– | – | – | – | 285 to 292 °C | ++ | > 111000 nM | > 111000 nM | COc1cnc2c(c1)C(=O)c1c-2n(CCCNC(C)C)c(=O)c2cc(F)ccc12 [Compound 17f, 3-Fluoro-6-(3-(isopropylamino)propyl)-9-methoxy-5H-pyrido[3′,2′:4,5]cyclopenta[1,2-c]isoquinoline-5,11(6H)-dione] | 164 nM | 31 nM | 107 nM | 248 nM | 271 nM | 190 nM | 165 nM | – | 93 nM | 210 nM
– | – | – | – | 259 to 265 °C | + | > 111000 nM | 108000 ± 3000 nM | CNCCCn1c2c(c3ccc(F)cc3c1=O)C(=O)c1cc(OC)cnc1-2 [Compound 17g, 3-Fluoro-9-methoxy-6-(3-(methylamino)propyl)-5H-pyrido[3′,2′:4,5]cyclopenta[1,2-c]isoquinoline-5,11(6H)-dione] | 211 nM | 34 nM | 142 nM | 368 nM | 608 nM | 263 nM | 245 nM | – | 143 nM | 202 nM
– | – | – | – | 157 to 162 °C | +++ | > 111000 nM | > 111000 nM | COc1cnc2c(c1)C(=O)c1c-2n(CCCN2CCCC2)c(=O)c2cc(F)ccc12 [Compound 17i, 3-Fluoro-9-methoxy-6-(3-(pyrrolidin-1-yl)propyl)-5H-pyrido[3′,2′:4,5]cyclopenta[1,2-c]isoquinoline-5,11(6H)-dione] | 241 nM | 48 nM | 212 nM | 360 nM | 471 nM | 307 nM | 288 nM | – | 153 nM | 211 nM
